From patent US11771672B2, “Use of 2-hydroxyoleic acid for the treatment of systemic lupus erythematosus and other immune pathologies” (THE RESEARCH FOUNDATION FOR THE STATE UNIVERSITY OF NEW YORK, priority 2017, dated 2023)
Like-named read-outs stand apart in the source and are kept apart here. One block for each compound: values may come before it.

How the values were obtained:
[1] = test system: SMS; conditions: cited from earlier work
[2] = test system: PKCδ; assay: Western blot analysis of nuclear PKCδ (PKCδ nuclear translocation) in splenic B cells; type: cell-based, mouse
Source text: Generally speaking, PKCs are known to receive DAG on the plasma membrane for their full activation and subsequent subcellular translocation. However, in B cells, the plasma membrane DAG provider that activates PKCδ nuclear translocation is still unknown. Whether SMS2 was the DAG provider for PKCδ activation in mature B cells was therefore tested. In contrast to Sgms2^+/+ naive B cells, nuclear PKCδ was barely detectable in the Sgms2^−/− naive B cells following 24 hr culture. […] This DAG analog-dependent effect supported the involvement of SMS2-derived DAG in activation of PKCδ nuclear translocation.
To further clarify the mechanism that regulates PKCδ activation by SMS2-generated DAG, whether enhancing SMS2 activity could correspondingly increase PKCδ nuclear translocation in cultured Sgms2^+/+ B cells was tested.
293T cells were transfected with plasmid vectors to overexpress FLAG-tagged different SMS2 portions as indicated. Protein lysates from transfected 293T cells were immunoprecipitated with anti-FLAG antibody and then immunoblotted with anti-PKCδ antibody. Sample loading was controlled by inputs of cell lysates. […] Thus, SMS2 is a critical and direct PKCδ activator in mature B cells.

[3] = test system: splenic B cells; assay: Lysenin toxicity assay of surface SM levels in splenic B cells; type: cell-based, mouse; conditions: Sgms2-/- B cells, SM supplementation
[4] = target: T1, SMS2 (Mus musculus, UniProt Q9D4B1); assay: Elisa analysis of plasma membrane DAG levels in B cells; type: cell-based; conditions: purified Sgms2+/+ B cells
T1 construct: endogenous in cells; host or cells: purified primary splenic B cells from Sgms2+/+ mice (C57BL/6 background); Sgms2-/- B cells as knockout control
T1 sequence (Q9D4B1 1-365): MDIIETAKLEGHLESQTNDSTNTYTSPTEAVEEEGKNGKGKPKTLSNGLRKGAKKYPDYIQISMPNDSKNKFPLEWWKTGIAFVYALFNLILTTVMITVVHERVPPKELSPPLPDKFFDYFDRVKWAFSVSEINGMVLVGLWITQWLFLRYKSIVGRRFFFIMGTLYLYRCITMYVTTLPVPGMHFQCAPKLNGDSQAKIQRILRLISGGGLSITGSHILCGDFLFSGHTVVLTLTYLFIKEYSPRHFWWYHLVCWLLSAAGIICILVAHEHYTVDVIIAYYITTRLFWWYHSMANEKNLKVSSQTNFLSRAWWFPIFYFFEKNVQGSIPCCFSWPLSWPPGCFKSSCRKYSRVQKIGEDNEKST

[5] = test system: NZBWF1 mice; assay: Serum total IgG and anti-dsDNA IgG titers by ELISA in NZBWF1 mice (spontaneous SLE mouse model); type: in vivo; conditions: female NZBWF1 mice, four weeks
Source text: Given that PKCδ nuclear translocation was promoted by enhancing SMS2 activity with 2OHOA, whether this drug could be adopted to strengthen B cell tolerance in NZBWF1 mice that spontaneously develop SLE due to impaired tolerance caused by multiple genetic variants other than Sgms2 or Prkcd was examined. Remarkably, the expected increase in titers of anti-dsDNA IgGs in the sera of NZBWF1 mice over the same time frame as sham treated mice was impeded by 2OHOA treatment. […] This treatment started when the mouse serum anti-dsDNA IgG level reached the levels between 1,000 ng/ml and 30,000 ng/ml. The titers of serum total IgG and anti-dsDNA IgG were measured by ELISA. Shown in the graph are ratios of the IgG titers after treatment to the titers before treatment. Mann-Whitney test (2 tailed) was used to calculate p values, SEMs, and other parameters as shown in the graph and table. Data represents the results of 15 2OHOA-treated and 10 empty vehicle-treated mice.

[6] = as disclosed in U.S. Pat. No. 9,359,281

Compound: CCCCC/C=C\C/C=C\CCCCCCC(O)C(=O)O (stereo not shown) [2-hydroxylinoleic acid]
stimulation of SMS activity [1, 6]: stimulate SMS activity

Compound: CCCCCC/C=C\CCCCCCC(O)C(=O)O (stereo not shown) [2-hydroxypalmitoleic acid]
stimulation of SMS activity [1, 6]: stimulate SMS activity

Compound: CCCCCCCCCCCCCC(=O)O[C@@H]1[C@@H](C)[C@@]2(O)[C@@H](C=C(CO)C[C@]3(O)C(=O)C(C)=C[C@@H]23)[C@@H]2C(C)(C)[C@]12OC(C)=O [PMA]
PKCδ nuclear translocation ([2]; Sgms2+/+ B cells, PMA): promotion of PKCδ nuclear translocation
PKCδ nuclear translocation ([2]; Sgms2-/- B cells, PMA): but not in Sgms2^−/− B cells

Compound: CCCCCCCC/C=C\CCCCCC[C@H](O)C(=O)O [(S)-2OHOA, (S)-2-hydroxyoleic acid]
stimulation of SMS activity ([1]; compared with (R)-2-hydroxyoleic acid or a mixture of the two stereoisomers): more strongly stimulates SMS activity

Compound: sphingomyelin [SM]
nuclear PKCδ level ([2]; Sgms2-/- B cells, SM supplementation 24 hr): could not restore
surface SM level [3]: Restoration of surface SM level

Compound: CCCCC/C=C\C/C=C\C/C=C\CCCC(O)C(=O)O (stereo not shown) [2-hydroxy-gamma-linoleic acid]
stimulation of SMS activity [1, 6]: stimulate SMS activity

Compound: CC/C=C\C/C=C\C/C=C\CCCCCCC(O)C(=O)O (stereo not drawn) [2-hydroxy-alpha-linoleic acid]
stimulation of SMS activity [1, 6]: stimulate SMS activity

Compound: C/C=C(/C)C(=O)O[C@H]1C(C)=C[C@]23C(=O)[C@@H](C=C(CO)[C@@H](O)[C@]12O)[C@H]1[C@@H](C[C@H]3C)C1(C)C [I3A, ingenol-3-angelate]
nuclear PKCδ ([2]; Sgms2+/+ B cells cultured for 30 minutes): increased nuclear PKCδ
nuclear PKCδ ([2]; Sgms2-/- B cells cultured for 30 minutes): increased nuclear PKCδ

SMS2-derived DAG level (plasma membrane DAG) [4]: increased
Compound: CCCCCCCC/C=C\CCCCCCC(O)C(=O)O (stereo not shown) [2OHOA, 2-hydroxyoleic acid]
PKCδ nuclear translocation ([2]; Sgms2-/- B cells, 2OHOA-treated): but not in Sgms2^−/− B cells
PKCδ nuclear translocation ([2]; purified Sgms2+/+ B cells, 2OHOA-treated): increased
increase in titers of anti-dsDNA IgGs in the sera ([5]; oral gavage 400 mg/kg per day, vs sham treated mice): impeded
total serum IgG titers ([5]; oral gavage 400 mg/kg/day): without reducing the total serum IgG titers
